According to the kinase profiling compilation of Christmann-Franck et al. (2016):

Legend:
Test in all cases: KINOMEscan competition binding
Details in all cases: compound 10.0 µM
[1] = target: PIK3CA (human) (UniProt P42336)
[2] = target: EPHA5 (human) (UniProt P54756)
[3] = target: MAP3K4 (human) (UniProt Q9Y6R4)
[4] = target: ADCK3 (human) (UniProt Q8NI60)
[5] = target: PTK2B (human) (UniProt Q14289)
[6] = target: TAOK1 (human) (UniProt Q7L7X3)
[7] = target: PLK3 (human) (UniProt Q9H4B4)
[8] = target: TXK (human) (UniProt P42681)
[9] = target: MAPK7 (human) (UniProt Q13164)
[10] = target: PDGFRB (human) (UniProt P09619)
[11] = target: RPS6KA1 KD2 (human) (UniProt Q15418)
[12] = target: STK33 (human) (UniProt Q9BYT3)
[13] = target: PAK6 (human) (UniProt Q9NQU5)
[14] = target: PIK3CB (human) (UniProt P42338)
[15] = target: CSK (human) (UniProt P41240)
[16] = target: CDK15 (human) (UniProt Q96Q40)
[17] = target: CDKL1 (human) (UniProt Q00532)
[18] = target: STK32A (human) (UniProt Q8WU08)
[19] = target: BRSK2 (human) (UniProt Q8IWQ3)
[20] = target: TNK2 (human) (UniProt Q07912)
[21] = target: MAP3K6 (human) (UniProt O95382)
[22] = target: CDK14 (human) (UniProt O94921)
[23] = target: MAP3K7 (human) (UniProt O43318)
[24] = target: TYRO3 (human) (UniProt Q06418)
[25] = target: CDK16 (human) (UniProt Q00536)
[26] = target: ULK1 (human) (UniProt O75385)
[27] = target: MAK (human) (UniProt P20794)
[28] = target: CDK18 (human) (UniProt Q07002)
[29] = target: CSNK1A1 (human) (UniProt P48729)
[30] = target: RAF1 (human) (UniProt P04049)
[31] = target: CSNK1D (human) (UniProt P48730)
[32] = target: TNNI3K (human) (UniProt Q59H18)
[33] = target: MAPK14 (human) (UniProt Q16539)
[34] = target: MAPK13 (human) (UniProt O15264)
[35] = target: PTK6 (human) (UniProt Q13882)
[36] = target: CIT (human) (UniProt O14578)
[37] = target: CSF1R (human) (UniProt P07333)
[38] = target: MAP2K7 (human) (UniProt O14733)
[39] = target: PI4KB (human) (UniProt Q9UBF8)
[40] = target: MYO3B (human) (UniProt Q8WXR4)

Sequence of CSF1R (human) (P07333 whole entry, looked up): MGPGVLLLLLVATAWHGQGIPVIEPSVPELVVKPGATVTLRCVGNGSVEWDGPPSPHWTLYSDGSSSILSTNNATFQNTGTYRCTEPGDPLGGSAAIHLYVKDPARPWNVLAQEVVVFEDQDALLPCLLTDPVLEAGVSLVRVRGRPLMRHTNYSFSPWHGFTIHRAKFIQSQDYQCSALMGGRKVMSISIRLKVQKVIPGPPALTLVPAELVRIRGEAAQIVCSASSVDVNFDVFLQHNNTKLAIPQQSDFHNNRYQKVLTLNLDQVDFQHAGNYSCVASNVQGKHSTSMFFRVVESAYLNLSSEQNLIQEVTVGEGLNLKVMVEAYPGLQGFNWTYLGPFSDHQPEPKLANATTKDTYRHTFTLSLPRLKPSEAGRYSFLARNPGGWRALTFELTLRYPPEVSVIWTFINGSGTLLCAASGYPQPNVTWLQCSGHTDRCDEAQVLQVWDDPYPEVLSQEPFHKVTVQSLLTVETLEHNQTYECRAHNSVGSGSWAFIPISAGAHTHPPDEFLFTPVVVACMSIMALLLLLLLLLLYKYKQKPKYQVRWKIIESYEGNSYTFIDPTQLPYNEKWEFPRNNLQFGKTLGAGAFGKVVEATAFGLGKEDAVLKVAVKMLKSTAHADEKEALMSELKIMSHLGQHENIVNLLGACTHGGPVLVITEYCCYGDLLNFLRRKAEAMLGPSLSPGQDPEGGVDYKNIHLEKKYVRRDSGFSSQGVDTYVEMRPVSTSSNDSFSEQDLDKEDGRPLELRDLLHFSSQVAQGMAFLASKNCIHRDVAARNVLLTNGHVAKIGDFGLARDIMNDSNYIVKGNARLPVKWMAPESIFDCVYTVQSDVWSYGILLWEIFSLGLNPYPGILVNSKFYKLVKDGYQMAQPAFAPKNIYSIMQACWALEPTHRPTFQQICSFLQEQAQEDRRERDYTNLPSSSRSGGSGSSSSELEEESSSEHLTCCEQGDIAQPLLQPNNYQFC
Sequence of CSNK1D (human) (P48730 whole entry, looked up): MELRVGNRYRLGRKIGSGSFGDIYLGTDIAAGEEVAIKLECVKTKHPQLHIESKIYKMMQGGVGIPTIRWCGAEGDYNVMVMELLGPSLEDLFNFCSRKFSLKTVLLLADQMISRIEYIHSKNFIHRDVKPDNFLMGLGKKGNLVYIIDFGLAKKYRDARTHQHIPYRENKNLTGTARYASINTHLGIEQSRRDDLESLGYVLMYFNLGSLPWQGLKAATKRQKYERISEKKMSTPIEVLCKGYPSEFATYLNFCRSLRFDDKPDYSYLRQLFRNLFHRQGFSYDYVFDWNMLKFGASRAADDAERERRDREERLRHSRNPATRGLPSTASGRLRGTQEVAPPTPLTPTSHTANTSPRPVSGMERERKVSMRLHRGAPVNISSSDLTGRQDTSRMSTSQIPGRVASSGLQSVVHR
Sequence of STK32A (human) (Q8WU08 whole entry, looked up): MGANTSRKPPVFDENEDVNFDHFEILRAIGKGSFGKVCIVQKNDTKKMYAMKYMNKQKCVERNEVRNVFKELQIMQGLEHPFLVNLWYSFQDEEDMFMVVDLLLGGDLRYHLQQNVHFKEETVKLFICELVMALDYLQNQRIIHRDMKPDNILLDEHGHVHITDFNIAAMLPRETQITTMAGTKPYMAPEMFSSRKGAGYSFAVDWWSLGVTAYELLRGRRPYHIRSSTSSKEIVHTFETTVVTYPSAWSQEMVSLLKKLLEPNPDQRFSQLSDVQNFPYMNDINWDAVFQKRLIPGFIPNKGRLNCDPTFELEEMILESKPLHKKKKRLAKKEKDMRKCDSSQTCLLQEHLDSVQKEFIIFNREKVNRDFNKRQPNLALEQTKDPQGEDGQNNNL
Sequence of CIT (human) (O14578 whole entry, looked up): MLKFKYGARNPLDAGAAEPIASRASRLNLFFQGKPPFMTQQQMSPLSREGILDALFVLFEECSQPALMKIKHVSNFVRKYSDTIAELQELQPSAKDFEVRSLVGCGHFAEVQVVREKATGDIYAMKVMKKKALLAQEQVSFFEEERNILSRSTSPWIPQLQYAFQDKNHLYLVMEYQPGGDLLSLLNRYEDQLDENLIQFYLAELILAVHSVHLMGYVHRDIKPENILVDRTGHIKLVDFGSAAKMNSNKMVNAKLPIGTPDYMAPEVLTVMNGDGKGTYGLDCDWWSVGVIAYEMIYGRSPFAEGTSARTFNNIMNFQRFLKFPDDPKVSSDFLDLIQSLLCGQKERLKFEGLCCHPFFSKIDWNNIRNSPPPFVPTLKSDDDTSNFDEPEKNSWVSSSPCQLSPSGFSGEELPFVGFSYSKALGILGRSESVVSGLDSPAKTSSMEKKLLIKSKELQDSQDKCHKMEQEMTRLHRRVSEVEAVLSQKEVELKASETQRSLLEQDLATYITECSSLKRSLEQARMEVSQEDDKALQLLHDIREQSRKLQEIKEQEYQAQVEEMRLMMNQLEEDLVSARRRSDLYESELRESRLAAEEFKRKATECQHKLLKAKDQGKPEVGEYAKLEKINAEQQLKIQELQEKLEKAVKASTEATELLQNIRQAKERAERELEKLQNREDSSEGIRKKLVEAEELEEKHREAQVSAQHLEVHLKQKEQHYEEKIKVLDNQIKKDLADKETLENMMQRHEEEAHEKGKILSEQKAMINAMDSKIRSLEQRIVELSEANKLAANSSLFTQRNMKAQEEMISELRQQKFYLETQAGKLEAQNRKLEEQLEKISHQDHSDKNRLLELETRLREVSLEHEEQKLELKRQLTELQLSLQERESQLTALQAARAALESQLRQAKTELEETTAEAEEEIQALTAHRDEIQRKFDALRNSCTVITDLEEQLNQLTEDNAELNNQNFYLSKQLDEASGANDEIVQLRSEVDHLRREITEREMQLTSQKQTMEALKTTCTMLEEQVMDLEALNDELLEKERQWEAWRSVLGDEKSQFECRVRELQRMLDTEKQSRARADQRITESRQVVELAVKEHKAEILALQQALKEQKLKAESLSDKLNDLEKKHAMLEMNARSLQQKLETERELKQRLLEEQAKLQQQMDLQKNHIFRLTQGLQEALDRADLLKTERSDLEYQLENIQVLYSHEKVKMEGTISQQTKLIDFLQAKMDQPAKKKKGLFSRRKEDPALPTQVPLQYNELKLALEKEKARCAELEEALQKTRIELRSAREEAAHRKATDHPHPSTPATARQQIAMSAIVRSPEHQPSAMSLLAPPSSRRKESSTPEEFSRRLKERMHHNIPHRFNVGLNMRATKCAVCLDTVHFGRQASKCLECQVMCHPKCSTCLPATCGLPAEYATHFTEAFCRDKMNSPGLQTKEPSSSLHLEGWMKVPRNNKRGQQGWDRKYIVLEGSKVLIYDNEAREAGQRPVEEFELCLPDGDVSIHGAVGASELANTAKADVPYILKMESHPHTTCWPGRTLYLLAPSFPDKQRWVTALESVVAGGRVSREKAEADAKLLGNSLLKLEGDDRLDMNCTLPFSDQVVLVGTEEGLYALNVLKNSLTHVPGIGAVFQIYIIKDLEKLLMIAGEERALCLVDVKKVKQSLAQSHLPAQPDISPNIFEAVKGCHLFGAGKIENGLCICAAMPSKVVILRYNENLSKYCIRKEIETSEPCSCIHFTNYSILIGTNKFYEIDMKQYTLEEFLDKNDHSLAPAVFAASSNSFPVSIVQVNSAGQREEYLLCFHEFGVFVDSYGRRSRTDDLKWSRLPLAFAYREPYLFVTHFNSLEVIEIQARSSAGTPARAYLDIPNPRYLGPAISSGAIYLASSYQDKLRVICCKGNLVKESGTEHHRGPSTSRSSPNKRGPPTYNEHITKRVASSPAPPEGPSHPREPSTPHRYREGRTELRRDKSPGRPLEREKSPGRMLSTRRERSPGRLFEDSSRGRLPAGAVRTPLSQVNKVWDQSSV
Sequence of MAP2K7 (human) (O14733 whole entry, looked up): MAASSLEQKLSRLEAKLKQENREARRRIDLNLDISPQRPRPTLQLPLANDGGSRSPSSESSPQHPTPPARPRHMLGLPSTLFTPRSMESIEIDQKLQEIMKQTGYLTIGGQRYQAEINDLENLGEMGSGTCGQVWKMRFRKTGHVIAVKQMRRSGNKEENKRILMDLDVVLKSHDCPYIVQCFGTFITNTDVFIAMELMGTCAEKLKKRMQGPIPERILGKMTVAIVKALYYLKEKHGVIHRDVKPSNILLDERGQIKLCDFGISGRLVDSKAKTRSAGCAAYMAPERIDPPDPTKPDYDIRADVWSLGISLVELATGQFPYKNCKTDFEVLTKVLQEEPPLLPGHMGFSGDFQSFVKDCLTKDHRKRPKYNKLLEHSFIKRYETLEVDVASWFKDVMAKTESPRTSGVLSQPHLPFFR
Sequence of CDK16 (human) (Q00536 whole entry, looked up): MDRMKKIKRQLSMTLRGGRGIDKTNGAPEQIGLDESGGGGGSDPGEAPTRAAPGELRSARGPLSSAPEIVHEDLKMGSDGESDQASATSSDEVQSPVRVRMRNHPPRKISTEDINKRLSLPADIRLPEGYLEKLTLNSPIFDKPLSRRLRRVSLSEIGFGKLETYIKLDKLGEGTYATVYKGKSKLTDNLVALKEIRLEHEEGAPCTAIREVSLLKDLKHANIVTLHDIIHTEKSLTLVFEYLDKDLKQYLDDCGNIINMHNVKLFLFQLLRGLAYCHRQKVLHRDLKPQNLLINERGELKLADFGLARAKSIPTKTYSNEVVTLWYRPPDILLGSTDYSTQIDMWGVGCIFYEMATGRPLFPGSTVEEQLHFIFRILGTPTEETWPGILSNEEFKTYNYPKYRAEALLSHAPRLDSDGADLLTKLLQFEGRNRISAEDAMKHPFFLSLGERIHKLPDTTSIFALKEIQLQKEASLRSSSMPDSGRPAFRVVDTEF
Sequence of CSNK1A1 (human) (P48729 whole entry, looked up): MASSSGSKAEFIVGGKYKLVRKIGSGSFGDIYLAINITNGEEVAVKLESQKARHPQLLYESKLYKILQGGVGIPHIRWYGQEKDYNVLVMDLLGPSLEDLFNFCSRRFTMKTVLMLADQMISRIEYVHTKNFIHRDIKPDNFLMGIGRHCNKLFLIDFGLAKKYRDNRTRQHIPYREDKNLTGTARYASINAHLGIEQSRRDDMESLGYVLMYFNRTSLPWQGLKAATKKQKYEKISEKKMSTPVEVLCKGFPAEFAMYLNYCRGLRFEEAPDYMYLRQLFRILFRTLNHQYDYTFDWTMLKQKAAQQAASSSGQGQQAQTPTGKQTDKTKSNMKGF

## O=C(NC1CC1)c1cccc(-c2ccc3c(NC(=O)C4CC4)n[nH]c3c2)c1
[1]
  kinase still bound, per cent of control: 99%
[2]
  kinase still bound, per cent of control: 95%
[3]
  kinase still bound, per cent of control: 93%
[4]
  kinase still bound, per cent of control: 78%
[5]
  kinase still bound, per cent of control: 100%
[6]
  kinase still bound, per cent of control: 4.5%
[7]
  kinase still bound, per cent of control: 100%
[8]
  kinase still bound, per cent of control: 77%
[9]
  kinase still bound, per cent of control: 93%
[10]
  kinase still bound, per cent of control: 24%
[11]
  kinase still bound, per cent of control: 68%
[12]
  kinase still bound, per cent of control: 100%
[13]
  kinase still bound, per cent of control: 61%
[14]
  kinase still bound, per cent of control: 100%
[15]
  kinase still bound, per cent of control: 84%
[16]
  kinase still bound, per cent of control: 84%
[17]
  kinase still bound, per cent of control: 58%
[18]
  kinase still bound, per cent of control: 78%
[19]
  kinase still bound, per cent of control: 74%
[20]
  kinase still bound, per cent of control: 100%
[21]
  kinase still bound, per cent of control: 86%
[22]
  kinase still bound, per cent of control: 46%
[23]
  kinase still bound, per cent of control: 56%
[24]
  kinase still bound, per cent of control: 100%
[25]
  kinase still bound, per cent of control: 5%
[26]
  kinase still bound, per cent of control: 100%
[27]
  kinase still bound, per cent of control: 51%
[28]
  kinase still bound, per cent of control: 58%
[29]
  kinase still bound, per cent of control: 100%
[30]
  kinase still bound, per cent of control: 78%
[31]
  kinase still bound, per cent of control: 78%
[32]
  kinase still bound, per cent of control: 92%
[33]
  kinase still bound, per cent of control: 2%
[34]
  kinase still bound, per cent of control: 5%
[35]
  kinase still bound, per cent of control: 97%
[36]
  kinase still bound, per cent of control: 89%
[37]
  kinase still bound, per cent of control: 70%
[38]
  kinase still bound, per cent of control: 100%
[39]
  kinase still bound, per cent of control: 84%
[40]
  kinase still bound, per cent of control: 93%

## C[C@@H](Oc1cc(-n2cnc3ccc(CN4CCN(C)CC4)cc32)sc1C(N)=O)c1ccccc1C(F)(F)F
[1]
  kinase still bound, per cent of control: 52%
[2]
  kinase still bound, per cent of control: 100%
[3]
  kinase still bound, per cent of control: 100%
[4]
  kinase still bound, per cent of control: 77%
[5]
  kinase still bound, per cent of control: 82%
[6]
  kinase still bound, per cent of control: 14%
[7]
  kinase still bound, per cent of control: 3.6%
[8]
  kinase still bound, per cent of control: 71%
[9]
  kinase still bound, per cent of control: 91%
[10]
  kinase still bound, per cent of control: 9.8%
[11]
  kinase still bound, per cent of control: 71%
[12]
  kinase still bound, per cent of control: 75%
[13]
  kinase still bound, per cent of control: 98%
[14]
  kinase still bound, per cent of control: 0.8%
[15]
  kinase still bound, per cent of control: 100%
[16]
  kinase still bound, per cent of control: 67%
[17]
  kinase still bound, per cent of control: 75%
[18]
  kinase still bound, per cent of control: 66%
[19]
  kinase still bound, per cent of control: 52%
[20]
  kinase still bound, per cent of control: 100%
[21]
  kinase still bound, per cent of control: 75%
[22]
  kinase still bound, per cent of control: 94%
[23]
  kinase still bound, per cent of control: 48%
[24]
  kinase still bound, per cent of control: 100%
[25]
  kinase still bound, per cent of control: 100%
[26]
  kinase still bound, per cent of control: 41%
[27]
  kinase still bound, per cent of control: 100%
[28]
  kinase still bound, per cent of control: 100%
[29]
  kinase still bound, per cent of control: 91%
[30]
  kinase still bound, per cent of control: 100%
[31]
  kinase still bound, per cent of control: 100%
[32]
  kinase still bound, per cent of control: 92%
[33]
  kinase still bound, per cent of control: 100%
[34]
  kinase still bound, per cent of control: 100%
[35]
  kinase still bound, per cent of control: 93%
[36]
  kinase still bound, per cent of control: 87%
[37]
  kinase still bound, per cent of control: 77%
[38]
  kinase still bound, per cent of control: 80%
[39]
  kinase still bound, per cent of control: 100%
[40]
  kinase still bound, per cent of control: 100%
